Here are results for 27 compounds from US20250136576A1, “Heterocyclic Compounds and Uses Thereof” (ACEA Therapeutics, Inc., priority 2021, published 2025).

Molecules are shown by their SMILES.

The subject of one experiment is KM12-luc cells. In words: Cell proliferation and growth inhibition assay (CCK-8) in KM12-luc. Type of experiment: cell-based. Conditions: KM12-Luc, 72 h, KM12-luc cells, treated with test compounds for 72 hrs, CCK-8 viability; read-out: NTRK IC50 in KM12-luc. Put shortly:
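Cells were grown at 37 °C, 5% CO2 with 10% FBS: MV-4-11 in IMDM, H1975 in RPMI 1640, KM12-luc in DMEM. Viability was read by CCK-8 (1-4 hrs reagent incubation, absorbance at OD450). IC50 came from a non-linear sigmoidal dose-response fit.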
Take `CCN(CCN(C)C)c1ccc(Nc2nc(-c3cn(C)c4ccccc34)c3cc[nH]c3n2)cc1NCCF` [Compound 212e, N^1-(2-(dimethylamino)ethyl)-N^1-ethyl-N^2-(2-fluoroethyl)-N^4-(4-(1-methyl-1H-indol-3-yl)-7H-pyrrolo[2,3-d]pyrimidin-2-yl)benzene-1,2,4-triamine]: the IC50 stood at 3360 nM.

With `CC(=O)Nc1cc(Nc2ncc(C(F)(F)F)c(-c3cn(C)c4ccccc34)n2)c(F)cc1N(C)CCN(C)C` [Compound 313, N-(2-((2-(dimethylamino)ethyl)(methyl)amino)-4-fluoro-5-((4-(1-methyl-1H-indol-3-yl)-5-(trifluoromethyl)pyrimidin-2-yl)amino)phenyl)acetamide], the IC50 amounted to 308 nM.

In the case of `CN1CCN(c2ccc(C(=O)Nc3c[nH]c4cnc(Oc5cc(F)cc(F)c5)nc34)c(NC3CCOCC3)c2)CC1` [Compound 503, N-(2-(3,5-difluorophenoxy)-5H-pyrrolo[3,2-d]pyrimidin-7-yl)-4-(4-methylpiperazin-1-yl)-2-((tetrahydro-2H-pyran-4-yl)amino)benzamide], the IC50 is 3640 nM.

For the compound `CN(C)CCN(C)c1ccc(Nc2ncc(F)c(-c3cn(C)c4ccccc34)n2)cc1N` [Compound 262, N^1-(2-(dimethylamino)ethyl)-N^4-(5-fluoro-4-(1-methyl-1H-indol-3-yl)pyrimidin-2-yl)-N-methylbenzene-1,2,4-triamine], the IC50 is 966 nM.

As to `CN(C)[C@H]1CCN(c2ccc(Nc3ncc(C(F)(F)F)c(-c4cn(C)c5c(F)cccc45)n3)cc2N)C1` [Compound S-354, (S)-4-(3-(dimethylamino)pyrrolidin-1-yl)-N^1-(4-(7-fluoro-1-methyl-1H-indol-3-yl)-5-(trifluoromethyl)pyrimidin-2-yl)benzene-1,3-diamine], the IC50 stood at 56.3 nM.

For the compound `Cc1nc2cc(Nc3ncc(C(F)(F)F)c(-c4c[nH]c5ccccc45)n3)ccc2n1CCN(C)C` [Compound 303b, N^1—N-(4-(1H-indol-3-yl)-5-(trifluoromethyl)pyrimidin-2-yl)-1-(2-(dimethylamino)ethyl)-2-methyl-1H-benzo[d]imidazol-5-amine], the IC50 is 64.3 nM.

`Cc1nc2cc(Nc3ncc(C(F)(F)F)c(-c4cn(C)c5ccccc45)n3)ccc2n1CCN(C)C` [Compound 314b, 1-(2-(dimethylamino)ethyl)-2-methyl-N-(4-(1-methyl-1H-indol-3-yl)-5-(trifluoromethyl)pyrimidin-2-yl)-1H-benzo[d]imidazol-5-amine]: the IC50 stood at 139 nM.

In the case of `CCN(CCN(C)C)c1c(F)cc(Nc2nc(-c3cn(C)c4ccccc34)c3occc3n2)cc1NC(C)=O` [Compound 256d, N-(2-((2-(dimethylamino)ethyl)(ethyl)amino)-3-fluoro-5-((4-(1-methyl-1H-indol-3-yl)furo[3,2-d]pyrimidin-2-yl)amino)phenyl)acetamide], the IC50 was found to be 1000 nM.

As to `COc1cnc(Nc2ccc(N(C)CCN(C)C)c(NC(C)=O)c2)nc1-c1c[nH]c2ccccc12` [Compound 272a, N-(5-(4-(1H-indol-3-yl)-5-methoxypyrimidin-2-ylamino)-2-((2-(dimethylamino)ethyl)(methyl)amino)phenyl)acetamide], the IC50 worked out at 41 nM.

For `CC(=O)Nc1cc(Nc2nc3c(c(-c4cn(C)c5ccccc45)n2)COCC3)cc(F)c1N(C)CCN(C)C` [Compound 257b, N-(2-((2-(dimethylamino)ethyl)(methyl)amino)-3-fluoro-5-((4-(1-methyl-1H-indol-3-yl)-7,8-dihydro-5H-pyrano[4,3-d]pyrimidin-2-yl)amino)phenyl)acetamide], the half-inhibitory concentration (IC50) is > 10000 nM.

Consider `CCC(=O)Nc1cccc(Nc2ncc(Cl)c(Nc3ccc(N4CCN(C(C)=O)CC4)cc3OC)n2)c1` [Compound 162, N-(3-((4-((4-(4-acetylpiperazin-1-yl)-2-methoxyphenyl)amino)-5-chloropyrimidin-2-yl)amino)phenyl)propionamide], for which the half-inhibitory concentration (IC50) was determined as 129 nM.

In the case of `CN(C)CCN(C)c1ccc(Nc2ncc(Cl)c(-c3c[nH]c4c(F)cccc34)n2)cc1N` [Compound 411, N^4-(5-chloro-4-(7-fluoro-1H-indol-3-yl)pyrimidin-2-yl)-N^1-(2-(dimethylamino)ethyl)-N^1-methylbenzene-1,2,4-triamine], the IC50 is 12.8 nM.

With `CN1CCN(c2ccc(C(=O)Nc3c[nH]c4ccc(Nc5cc(F)cc(F)c5)cc34)c(NC3CCOCC3)c2)CC1` [Compound 497, N-(5-((3,5-difluorophenyl)amino)-1H-indol-3-yl)-4-(4-methylpiperazin-1-yl)-2-((tetrahydro-2H-pyran-4-yl)amino)benzamide], the IC50 stood at 4030 nM.

As for `CC(=O)Nc1cc(Nc2nc3c(c(-c4cn(C)c5ccccc45)n2)CCO3)cc(F)c1N(C)CCN(C)C` [Compound 258b, N-(2-((2-(dimethylamino)ethyl)(methyl)amino)-3-fluoro-5-((4-(1-methyl-1H-indol-3-yl)-5,6-dihydrofuro[2,3-d]pyrimidin-2-yl)amino)phenyl)acetamide], the IC50 was > 1000 nM.

Take `Cc1cccc2c(-c3nc(Nc4ccc5c(c4)nc(C)n5CCN(C)C)ncc3C(F)(F)F)cn(C)c12` [Compound 371, N-(4-(1,7-dimethyl-1H-indol-3-yl)-5-(trifluoromethyl)pyrimidin-2-yl)-1-(2-(dimethylamino)ethyl)-2-methyl-1H-benzo[d]imidazol-5-amine]: the IC50 was 110 nM.

Turning to `CCN(CCN(C)C)c1cc(F)c(Nc2nc(-c3cn(C)c4cccc(F)c34)c3cc[nH]c3n2)cc1NC(C)=O` [Compound 222, N-(2-((2-(dimethylamino)ethyl)(ethyl)amino)-4-fluoro-5-((4-(4-fluoro-1-methyl-1H-indol-3-yl)-7H-pyrrolo[2,3-d]pyrimidin-2-yl)amino)phenyl)acetamide], the IC50 worked out at 1440 nM.

As for `CC(=O)Nc1cc(Nc2ncc(F)c(-c3cn(C)c4cc(F)c(F)cc34)n2)ccc1N(C)CCN(C)C` [Compound 268, N-(5-((4-(5,6-difluoro-1-methyl-1H-indol-3-yl)-5-fluoropyrimidin-2-yl)amino)-2-((2-(dimethylamino)ethyl)(methyl)amino)phenyl)acetamide], the IC50 is 784 nM.

In the case of `CCn1cc(-c2nc(Nc3ccc(N(C)CCN(C)C)c(NC(C)=O)c3)ncc2C(F)(F)F)c2cc(F)ccc21` [Compound 391, N-(2-((2-(dimethylamino)ethyl)(methyl)amino)-5-((4-(1-ethyl-5-fluoro-1H-indol-3-yl)-5-(trifluoromethyl)pyrimidin-2-yl)amino)phenyl)acetamide], the IC50 stood at 50 nM.

On to `CCC(=O)Nc1cc(Nc2ncc(C(F)(F)F)c(-c3c[nH]c4ccccc34)n2)ccc1N(CC)CCN(C)C` [Compound 302, N-(5-((4-(1H-indol-3-yl)-5-(trifluoromethyl)pyrimidin-2-yl)amino)-2-((2-(dimethylamino)ethyl)(ethyl)amino)phenyl)propionamide], for which the IC50 is 96.8 nM.

Regarding `COc1cccc2c(-c3nc(Nc4ccc(N(C)CCN(C)C)c(N)c4)ncc3C(F)(F)F)cn(C)c12` [Compound 385, N^1-(2-(dimethylamino)ethyl)-N^4-(4-(7-methoxy-1-methyl-1H-indol-3-yl)-5-(trifluoromethyl)pyrimidin-2-yl)-N^1-methylbenzene-1,2,4-triamine], the IC50 was determined as 45.3 nM.

In the case of `CC(=O)Nc1cc(Nc2ncc(C(F)(F)F)c(-c3cn(C)c4c(C)cccc34)n2)ccc1N(CCN(C)C)C(C)=O` [Compound 370, N-(2-acetamido-4-((4-(1,7-dimethyl-1H-indol-3-yl)-5-(trifluoromethyl)pyrimidin-2-yl)amino)phenyl)-N-(2-(dimethylamino)ethyl)acetamide], the IC50 came out at 77.1 nM.

On to `CC(=O)Nc1cc(Nc2ncc(Cl)c(-c3cn(C)c4ccccc34)n2)cc(F)c1N1CCC(N(C)C)C1` (stereo not drawn) [Compound 401, N-(5-((5-chloro-4-(1-methyl-1H-indol-3-yl)pyrimidin-2-yl)amino)-2-(3-(dimethylamino)pyrrolidin-1-yl)-3-fluorophenyl)acetamide], for which the IC50 turned out to be 49.5 nM.

`CCN(CCN(C)C)c1ccc(Nc2nc(OC)c(OC)c(-c3cn(C)c4ccccc34)n2)cc1NC(C)=O` [Compound 291c, N-(5-((4,5-dimethoxy-6-(1-methyl-1H-indol-3-yl)pyrimidin-2-yl)amino)-2-((2-(dimethylamino)ethyl) (ethyl)amino)phenyl) acetamide]: the IC50 worked out at 2050 nM.

Turning to `COc1cccc2c(-c3nc(Nc4ccc(OCCN(C)C)c(NC(C)=O)c4)ncc3C(F)(F)F)cn(C)c12` [Compound 388, N-(2-(2-(dimethylamino)ethoxy)-5-((4-(7-methoxy-1-methyl-1H-indol-3-yl)-5-(trifluoromethyl)pyrimidin-2-yl)amino)phenyl)acetamide], the IC50 was determined as 44.8 nM.

As to `COc1cnc(Nc2ccc(OCCN(C)C)c(NC(C)=O)c2)nc1-c1c[nH]c2c(F)cccc12` [Compound 279, N-(2-(2-(dimethylamino)ethoxy)-5-((4-(7-fluoro-1H-indol-3-yl)-5-methoxypyrimidin-2-yl)amino)phenyl)acetamide], the IC50 was determined as 52.6 nM.

The experiment is the same for the next values; noted with them: KM12-Luc, 72 h, read-out: NTRK IC50 in KM12-luc.
Consider `CCNc1cc(Nc2nc(-c3cn(C)c4ccc(F)cc34)c3cc[nH]c3n2)ccc1N(C)CCN(C)C` [Compound 227b, N^1-(2-(dimethylamino)ethyl)-N^2-ethyl-N^4-(4-(5-fluoro-1-methyl-1H-indol-3-yl)-7H-pyrrolo[2,3-d]pyrimidin-2-yl)-N^1-methylbenzene-1,2,4-triamine], for which the IC50 came out at 672 nM.

The same experiment, now with this note: KM12-luc cells, treated with test compounds for 72 hrs, CCK-8 viability; read-out: NTRK IC50 in KM12-luc.
Regarding `CC(=O)Nc1cc(Nc2nc(-c3cn(C)nc3C)c3cc[nH]c3n2)ccc1N(C)CCN(C)C` [Compound 255a, N-(5-(4-(1,3-dimethyl-1H-pyrazol-4-yl)-7H-pyrrolo[2,3-d]pyrimidin-2-ylamino)-2-((2-(dimethylamino)ethyl)(methyl)amino)phenyl)acetamide], the IC50 worked out at 246 nM.
